# Test results from PubChem BioAssay (NCI).
# Where “and” joins values, the source holds several entries; their conditions need not be identical. Identical values can stand only once.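 Growth conditions: 96-well plates. Treatment: test compound, 48 hours, 5 concentrations. Analysis: linear interpolation between bracketing concentrations; unreached endpoints set to highest concentration. Abbreviation: GI50, concentration required for 50% inhibition of growth. TGI is the concentration that stops growth completely.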
# Key:
# Test in all cases: NCI tumour cell line growth inhibition, 48 h
# HL-60(TB) leukemia = tested on: HL-60(TB) leukemia
# NCI-H460 lung = tested on: NCI-H460 lung
# A498 renal = tested on: A498 renal
# SNB-75 CNS = tested on: SNB-75 CNS
# UACC-62 melanoma = tested on: UACC-62 melanoma
# MALME-3M melanoma = tested on: MALME-3M melanoma
# SK-MEL-5 melanoma = tested on: SK-MEL-5 melanoma
# TK-10 renal = tested on: TK-10 renal
# HOP-92 NSCLC = tested on: HOP-92 NSCLC
# CAKI-1 renal = tested on: CAKI-1 renal
Compound,TGI (HL-60(TB) leukemia) [µM],TGI (NCI-H460 lung),TGI (A498 renal) [µM],TGI (SNB-75 CNS) [µM],TGI (UACC-62 melanoma),TGI (MALME-3M melanoma),TGI (SK-MEL-5 melanoma) [µM],TGI (TK-10 renal) [µM],TGI (HOP-92 NSCLC),TGI (CAKI-1 renal),GI50 (NCI-H460 lung) [µM],GI50 (A498 renal) [µM],GI50 (CAKI-1 renal) [µM],GI50 (HL-60(TB) leukemia) [µM],GI50 (SNB-75 CNS) [µM],GI50 (UACC-62 melanoma) [µM],GI50 (SK-MEL-5 melanoma) [µM],GI50 (TK-10 renal) [µM],GI50 (HOP-92 NSCLC) [µM]
CS(=O)(=O)c1ccc(/C=N/NC(N)=S)cc1,> 100,> 100 µM,> 100,> 100,> 100 µM,> 100 µM,> 100,> 100,> 100 µM,> 100 µM,–,–,–,–,–,–,–,–,–
CC1(C)CC23C4COC(=O)C2CCC1C3CC4=O (configuration not stated),12.6,29.8 µM,13.8,57.6,28.7 µM,23.3 µM,32.7,–,29.3 µM,43 µM,–,–,–,–,–,–,–,–,–
CC[C@]1(O)C[C@H]2CN(CCc3c([nH]c4ccccc34)[C@@](C(=O)OC)(c3cc4c(cc3OC)N(C=O)[C@H]3[C@@](O)(C(=O)OC)[C@H](OC(C)=O)[C@]5(CC)C=CCN6CC[C@]43[C@@H]65)C2)C1,–,0.775 µM and 2.35 µM,–,–,38.4 µM and 75.1 µM,6.23 µM and 32 µM and 58.1 µM,–,–,1.19 µM and 3.07 µM and 6.57 µM,9.22 µM and 10.8 µM and 77.2 µM,< 0.001,0.00192,1.95,–,–,–,–,–,–
CCOc1ccc2nc(-c3ccc(O)cc3)sc2c1,8.81,> 100 µM,> 100,–,> 100 µM,> 100 µM,> 100,> 100,–,> 100 µM,–,–,–,–,–,–,–,–,–
C/C=C/[C@H]1O[C@@](O)([C@@H](C)[C@H](O)[C@H](C)[C@H]2OC(=O)/C(OC)=C/C(C)=C/[C@@H](C)[C@@H](O)[C@@H](CC)[C@@H](O)[C@H](C)C/C(C)=C/C=C/[C@@H]2OC)C[C@H](OC2CC(O)C(O)C(C)O2)[C@@H]1C (some centres not stated),< 0.0075,4.81 µM,12.2,46,10.3 µM,0.907 µM,0.0828,18.9,3.69 µM,11.9 µM,–,–,–,–,–,–,–,–,–
CCOC(=O)NC(Nc1ncccn1)(C(F)(F)F)C(F)(F)F,> 100,> 100 µM,> 100,> 100,> 100 µM,> 100 µM,–,> 100,–,–,–,–,–,–,–,–,–,–,–
O=C(O)c1ccccc1NC(c1ccccc1)c1ccc2cccnc2c1O (configuration not stated),8.22,63.4 µM,> 100,> 86.7,> 50 µM,> 56.4 µM,24.5,51.1,> 100 µM,50.1 µM,–,–,–,–,–,–,–,–,–
N/C(=N\N=C/c1ccccc1O)NO,> 36,> 43.7 µM,44.4,> 29.9,38.4 µM,> 84.1 µM,> 100,–,> 67.6 µM,24 µM,–,–,–,–,–,–,–,–,–
O=C(Nc1cccc(-n2ccc3c(NC(=O)c4ccccc4)nccc32)c1)c1ccc(N2CCOCC2)c(C(F)(F)F)c1,4.82,26.9 µM,4.72,25.9,22.5 µM,–,0.169,> 100,6.87 µM,14.8 µM,0.037,0.0357,0.0462,0.0393,0.023,0.0414,0.0349,0.0782,0.179
O=C(O)c1cc2ccccc2c(N=Nc2ccccc2)c1O,33.1,–,> 100,36,35.2 µM,26.6 µM,28.2,> 100,> 100 µM,84.2 µM,–,–,–,–,–,–,–,–,–
O=[N+]([O-])c1nc(-c2ccccn2)[nH]c1[N+](=O)[O-],> 100,> 100 µM,> 100,> 100,85.7 µM,> 100 µM,> 100,> 100,> 100 µM,> 100 µM,–,–,–,–,–,–,–,–,–
O=C1OC[C@@H]2[C@@H](O)CCCCCN12,> 100,> 100 µM,> 100,> 100,> 100 µM,–,> 100,> 100,> 100 µM,> 100 µM,–,–,–,–,–,–,–,–,–
COc1cc2c(cc1OC)-c1cc3ccccc3c[n+]1CC2,–,> 100 µM,–,> 100,> 100 µM,54.3 µM,> 100,> 100,> 100 µM,> 100 µM,–,–,–,–,–,–,–,–,–
CCS(=O)(=O)N1CCC(C(C)n2c(C)c(C(=O)NCc3c(OC)cc(C)[nH]c3=O)c3ccccc32)CC1 (configuration not stated),–,> 100 µM,> 100,> 100,–,–,> 100,> 100,–,> 100 µM,> 100,> 100,> 100,–,36.3,–,> 100,> 100,–
O=C1OC(c2ccccc2)=N/C1=C\c1cccnc1,> 100,> 100 µM,–,> 100,> 100 µM,–,> 100,> 100,> 100 µM,–,–,–,–,–,–,–,–,–,–
C/C(CC/C(C)=N/O)=N\O,> 100,> 100 µM,> 100,> 100,> 100 µM,> 100 µM,> 100,> 100,–,> 100 µM,–,–,–,–,–,–,–,–,–
Fc1ccc2[nH]cc(-c3nc(-c4c[nH]c5ncccc45)cs3)c2c1,–,> 100 µM,> 100,> 100,> 100 µM,–,–,> 100,–,–,2.11,2.07,–,–,1.58,> 100,–,> 100,–
COC1=C2CC(C)CC(OC)C(O)C(C)/C=C(\C)C(OC(N)=O)C(OC)/C=C\C=C(/C)C(=O)NC(=C(C=NC(C)(C)C)C1=O)C2=O (configuration not stated),1.86,18.4 µM,23.6,6.15,17.6 µM,5.23 µM,15.4,–,1.35 µM,23.7 µM,–,–,–,–,–,–,–,–,–
